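Protocol summary: plate cells (96-well), add compound at 5 concentrations, incubate 48 h, interpolate endpoints linearly. TGI is the concentration that stops growth completely.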
What follows are compounds tested on MDA-N (assay: DTP human tumour cell line panel, 48 h).
With `Cc1cc(S(=O)(=O)N=C2N(Cc3ccccc3)CCN2Cc2ccccc2)c(S)cc1Cl` the TGI was over 100 µM. With `COCN(CCC1=CCCCC1)C(=O)OC` the TGI was over 100 µM.

Each compound was assayed on NCI-H522 lung (assay: DTP human tumour cell line panel, 48 h).
`CCN(CC)C(=O)Cn1c(C)cc2ccccc21` gave a TGI of over 100 µM. Compound `CC1(C)NC2C(=O)c3c([nH]c4ccccc34)[C@]3(C)CCC1CC23` (some centres not stated) has a TGI of over 100 µM. Compound `COc1ccc2ccccc2c1/C=C/C(=O)c1ccccc1` has a TGI of 14.6 µM. For `C[C@]12CCC(=O)O[C@H]1CCCCO2`, the TGI was over 100 µM. With `CC(C)=CCC/C(C)=C/C=C/C(C)=C/C=C/C(C)=C/C=C/C=C(C)/C=C/C=C(C)/C=C/[C@H]1C(C(C)(C)O)CC[C@]1(C)O` (some centres not stated) the TGI was 36.8 µM. `O=C1C(CN2CCCCC2)CCC1CN1CCCCC1` (configuration not stated) was tested, and the TGI was 11.1 µM. In the case of `CC1=NNC(N)=N/C1=C\C(Sc1ccc(Cl)cc1)c1ccc([N+](=O)[O-])cc1` (configuration not stated), the TGI is reported as over 100 µM. With `c1ccc2c(c1)ccn2CCc1c[nH]c2ccccc12` the TGI was over 10 µM. `OCC(O)COCn1nncc1Cn1ncc2c(SCc3ccccc3)ncnc21` (configuration not stated) showed a TGI of 33.1 µM. For `O=C1CSC(c2cccc(Oc3ccccc3)c2)N1c1ccc(Cl)cc1` (configuration not stated), the TGI was 49.4 µM. In the case of `Nc1nc(N)c2ncn(-c3ccc(Cl)cc3)c2n1`, the TGI is reported as over 100 µM. In the case of `COc1cc(CNCc2cc(OC)c(OC)c(OC)c2)cc(OC)c1OC`, the TGI is reported as over 6.46 µM. `Oc1c(CN2CCOCC2)ccc2cccnc12` gave a TGI of 7.81 µM. `O=Cc1ccc2c(c1)CC1(Cc3ccccc3C1)C2` was tested, and the TGI was over 100 µM. `CCOCc1nc2c(OC)cc(-c3nc4ccc(N5CCN(C)CC5)cc4[nH]3)c(OC)c2[nH]1` was tested, and the TGI was 58.2 µM. `O=C(N/N=C\c1cccc2c([N+](=O)[O-])cccc12)Nc1ccccc1` gave a TGI of 38.4 µM. In the case of `CC(=O)OCC12C(=O)C[C@@H](C)C3(CC(c4ccoc4)OC3=O)C1CCC(OC(C)=O)C21CO1` (some centres not stated), the TGI is reported as over 100 µM. `CCCCN1C(=O)N(c2ccc(OCC)cc2)C2N(CCCC)C1C(C)(C)C2(C)C` (configuration not stated) was tested, and the TGI was over 100 µM. Compound `CON(C)C(=O)CNC(=O)OCC1c2ccccc2-c2ccccc21` has a TGI of over 100 µM. `O=C1/C(=N/O)Cc2c(Br)ccc(Br)c21` was tested, and the TGI was 91.3 µM. `CSc1ncnc2c1ncn2C1CC(Oc2ccc(C)cc2)C(COc2ccc(C)cc2)O1` (configuration not stated) gave a TGI of over 100 µM. For `O=C(O)Cc1cccc2c(=O)c3ccccc3oc12`, the TGI was over 100 µM. With `CCOC(=O)N/N=C(/N)c1cccc([N+](=O)[O-])c1` the TGI was over 100 µM. `COC1=C(OC)C(=O)C(Cc2c(C)nc3sc(C)cn23)=C(C)C1=O` showed a TGI of 70.6 µM. In the case of `COc1cccc(-c2ccc3c4c2O[C@H]2C(=O)CC[C@@]5(O)[C@@H](C3)N(CC3CC3)CC[C@]425)c1`, the TGI is reported as 32.9 µM. Work on `O=C1/C(=C/c2ccc([N+](=O)[O-])cc2)C(=O)N(c2ccccc2)C1c1ccccc1` (configuration not stated) yielded a TGI of over 10 µM. Work on `Cc1cc(S(=O)(=O)N=C2N(Cc3ccccc3)CCN2Cc2ccccc2)c(S)cc1Cl` yielded a TGI of over 100 µM. In the case of `COCN(CCC1=CCCCC1)C(=O)OC`, the TGI is reported as over 100 µM.

Each compound was assayed on OVCAR-5 ovarian (assay: DTP human tumour cell line panel, 48 h).
Work on `CCN(CC)C(=O)Cn1c(C)cc2ccccc21` yielded a TGI of over 100 µM. Compound `CC1(C)NC2C(=O)c3c([nH]c4ccccc34)[C@]3(C)CCC1CC23` (some centres not stated) has a TGI of over 100 µM. Work on `COc1ccc2ccccc2c1/C=C/C(=O)c1ccccc1` yielded a TGI of 22 µM. `C[C@]12CCC(=O)O[C@H]1CCCCO2` showed a TGI of over 100 µM. `CC(C)=CCC/C(C)=C/C=C/C(C)=C/C=C/C(C)=C/C=C/C=C(C)/C=C/C=C(C)/C=C/[C@H]1C(C(C)(C)O)CC[C@]1(C)O` (some centres not stated) gave a TGI of over 100 µM. Compound `O=C1C(CN2CCCCC2)CCC1CN1CCCCC1` (configuration not stated) has a TGI of 47.8 µM. `CC1=NNC(N)=N/C1=C\C(Sc1ccc(Cl)cc1)c1ccc([N+](=O)[O-])cc1` (configuration not stated) was tested, and the TGI was over 100 µM. For `c1ccc2c(c1)ccn2CCc1c[nH]c2ccccc12`, the TGI was over 10 µM. In the case of `OCC(O)COCn1nncc1Cn1ncc2c(SCc3ccccc3)ncnc21` (configuration not stated), the TGI is reported as over 100 µM. In the case of `O=C1CSC(c2cccc(Oc3ccccc3)c2)N1c1ccc(Cl)cc1` (configuration not stated), the TGI is reported as over 100 µM. Work on `Nc1nc(N)c2ncn(-c3ccc(Cl)cc3)c2n1` yielded a TGI of over 100 µM. In the case of `COc1cc(CNCc2cc(OC)c(OC)c(OC)c2)cc(OC)c1OC`, the TGI is reported as over 10 µM. In the case of `Oc1c(CN2CCOCC2)ccc2cccnc12`, the TGI is reported as over 10 µM. `O=Cc1ccc2c(c1)CC1(Cc3ccccc3C1)C2` showed a TGI of over 100 µM. `CCOCc1nc2c(OC)cc(-c3nc4ccc(N5CCN(C)CC5)cc4[nH]3)c(OC)c2[nH]1` showed a TGI of over 100 µM. With `O=C(N/N=C\c1cccc2c([N+](=O)[O-])cccc12)Nc1ccccc1` the TGI was 30.5 µM. `CC(=O)OCC12C(=O)C[C@@H](C)C3(CC(c4ccoc4)OC3=O)C1CCC(OC(C)=O)C21CO1` (some centres not stated) was tested, and the TGI was over 100 µM. Work on `CON(C)C(=O)CNC(=O)OCC1c2ccccc2-c2ccccc21` yielded a TGI of over 100 µM. Work on `O=C1/C(=N/O)Cc2c(Br)ccc(Br)c21` yielded a TGI of over 100 µM. Compound `CSc1ncnc2c1ncn2C1CC(Oc2ccc(C)cc2)C(COc2ccc(C)cc2)O1` (configuration not stated) has a TGI of over 100 µM. Compound `CCOC(=O)N/N=C(/N)c1cccc([N+](=O)[O-])c1` has a TGI of over 100 µM. Work on `COC1=C(OC)C(=O)C(Cc2c(C)nc3sc(C)cn23)=C(C)C1=O` yielded a TGI of 40.7 µM. `COc1cccc(-c2ccc3c4c2O[C@H]2C(=O)CC[C@@]5(O)[C@@H](C3)N(CC3CC3)CC[C@]425)c1` gave a TGI of 35.7 µM. `O=C1/C(=C/c2ccc([N+](=O)[O-])cc2)C(=O)N(c2ccccc2)C1c1ccccc1` (configuration not stated) was tested, and the TGI was over 10 µM. Compound `Cc1cc(S(=O)(=O)N=C2N(Cc3ccccc3)CCN2Cc2ccccc2)c(S)cc1Cl` has a TGI of over 100 µM. Work on `COCN(CCC1=CCCCC1)C(=O)OC` yielded a TGI of over 100 µM.

What follows are compounds tested on PC-3 prostate (assay: DTP human tumour cell line panel, 48 h).
With `CCN(CC)C(=O)Cn1c(C)cc2ccccc21` the TGI was over 100 µM. `CC1(C)NC2C(=O)c3c([nH]c4ccccc34)[C@]3(C)CCC1CC23` (some centres not stated) gave a TGI of over 100 µM. Work on `COc1ccc2ccccc2c1/C=C/C(=O)c1ccccc1` yielded a TGI of 13.9 µM. In the case of `C[C@]12CCC(=O)O[C@H]1CCCCO2`, the TGI is reported as over 100 µM. Work on `CC(C)=CCC/C(C)=C/C=C/C(C)=C/C=C/C(C)=C/C=C/C=C(C)/C=C/C=C(C)/C=C/[C@H]1C(C(C)(C)O)CC[C@]1(C)O` (some centres not stated) yielded a TGI of over 100 µM. `O=C1C(CN2CCCCC2)CCC1CN1CCCCC1` (configuration not stated) showed a TGI of over 57.6 µM. `CC1=NNC(N)=N/C1=C\C(Sc1ccc(Cl)cc1)c1ccc([N+](=O)[O-])cc1` (configuration not stated) was tested, and the TGI was over 100 µM. Compound `c1ccc2c(c1)ccn2CCc1c[nH]c2ccccc12` has a TGI of over 10 µM. Compound `OCC(O)COCn1nncc1Cn1ncc2c(SCc3ccccc3)ncnc21` (configuration not stated) has a TGI of over 100 µM. Work on `O=C1CSC(c2cccc(Oc3ccccc3)c2)N1c1ccc(Cl)cc1` (configuration not stated) yielded a TGI of over 100 µM. `Nc1nc(N)c2ncn(-c3ccc(Cl)cc3)c2n1` gave a TGI of over 100 µM. For `COc1cc(CNCc2cc(OC)c(OC)c(OC)c2)cc(OC)c1OC`, the TGI was over 10 µM. Work on `Oc1c(CN2CCOCC2)ccc2cccnc12` yielded a TGI of over 10 µM. For `O=Cc1ccc2c(c1)CC1(Cc3ccccc3C1)C2`, the TGI was 59.6 µM. `CCOCc1nc2c(OC)cc(-c3nc4ccc(N5CCN(C)CC5)cc4[nH]3)c(OC)c2[nH]1` showed a TGI of over 100 µM. Compound `O=C(N/N=C\c1cccc2c([N+](=O)[O-])cccc12)Nc1ccccc1` has a TGI of 32.7 µM. `CC(=O)OCC12C(=O)C[C@@H](C)C3(CC(c4ccoc4)OC3=O)C1CCC(OC(C)=O)C21CO1` (some centres not stated) was tested, and the TGI was over 100 µM. `CCCCN1C(=O)N(c2ccc(OCC)cc2)C2N(CCCC)C1C(C)(C)C2(C)C` (configuration not stated) was tested, and the TGI was over 100 µM. `CON(C)C(=O)CNC(=O)OCC1c2ccccc2-c2ccccc21` showed a TGI of over 100 µM. Work on `O=C1/C(=N/O)Cc2c(Br)ccc(Br)c21` yielded a TGI of over 100 µM. `CSc1ncnc2c1ncn2C1CC(Oc2ccc(C)cc2)C(COc2ccc(C)cc2)O1` (configuration not stated) was tested, and the TGI was over 100 µM. With `O=C(O)Cc1cccc2c(=O)c3ccccc3oc12` the TGI was over 100 µM. `CCOC(=O)N/N=C(/N)c1cccc([N+](=O)[O-])c1` showed a TGI of over 100 µM. Compound `COC1=C(OC)C(=O)C(Cc2c(C)nc3sc(C)cn23)=C(C)C1=O` has a TGI of 68.3 µM. `COc1cccc(-c2ccc3c4c2O[C@H]2C(=O)CC[C@@]5(O)[C@@H](C3)N(CC3CC3)CC[C@]425)c1` showed a TGI of 29.2 µM. `O=C1/C(=C/c2ccc([N+](=O)[O-])cc2)C(=O)N(c2ccccc2)C1c1ccccc1` (configuration not stated) showed a TGI of over 10 µM.
